# Activity calls are given as the source filed them. How the calls were made is not given here.
# Tested on: CCRIS mutagenicity, Ames/micronucleus/aberration tests
# Test: CCRIS mutagenicity studies
# [1] = Test System: AMES SALMONELLA TYPHIMURIUM, Strain/Indicator: TA98, Metabolic Activation: NONE, Method: STANDARD PLATE
# [2] = Test System: AMES SALMONELLA TYPHIMURIUM, Strain/Indicator: TA100, Metabolic Activation: NONE, Method: STANDARD PLATE
# [3] = Test System: AMES SALMONELLA TYPHIMURIUM, Strain/Indicator: TA1535, Metabolic Activation: NONE, Method: STANDARD PLATE
# [4] = Test System: AMES SALMONELLA TYPHIMURIUM, Strain/Indicator: TA1537, Metabolic Activation: NONE, Method: STANDARD PLATE
# [5] = Test System: AMES SALMONELLA TYPHIMURIUM, Strain/Indicator: TA1538, Metabolic Activation: NONE, Method: STANDARD PLATE
# [6] = Test System: AMES SALMONELLA TYPHIMURIUM, Strain/Indicator: TA98, Metabolic Activation: RAT, LIVER, S-9, AROCLOR 1254, Method: STANDARD PLATE
# [7] = Test System: AMES SALMONELLA TYPHIMURIUM, Strain/Indicator: TA100, Metabolic Activation: RAT, LIVER, S-9, AROCLOR 1254, Method: STANDARD PLATE
smiles,measurement,setting,value
Cc1c(-c2ccccc2)oc2c(C(=O)OCCN3CCCCC3)cccc2c1=O,mutagenic call,[1],inactive; negative
same,mutagenic call,"Test System: AMES SALMONELLA TYPHIMURIUM, Strain/Indicator: TA98, Metabolic Activation: S-9, Method: STANDARD PLATE",inactive; negative
same,mutagenic call,[2],inactive; negative
same,mutagenic call,"Test System: AMES SALMONELLA TYPHIMURIUM, Strain/Indicator: TA100, Metabolic Activation: S-9, Method: STANDARD PLATE",inactive; negative
same,mutagenic call,[3],inactive; negative
same,mutagenic call,"Test System: AMES SALMONELLA TYPHIMURIUM, Strain/Indicator: TA1535, Metabolic Activation: S-9, Method: STANDARD PLATE",inactive; negative
same,mutagenic call,[4],inactive; negative
same,mutagenic call,"Test System: AMES SALMONELLA TYPHIMURIUM, Strain/Indicator: TA1537, Metabolic Activation: S-9, Method: STANDARD PLATE",inactive; negative
same,mutagenic call,[5],inactive; negative
same,mutagenic call,"Test System: AMES SALMONELLA TYPHIMURIUM, Strain/Indicator: TA1538, Metabolic Activation: S-9, Method: STANDARD PLATE",inactive; negative
Cn1c2c3ccccc3nc-2cc2ccccc21,mutagenic call,"End Point: IN VITRO MICRONUCLEUS, Test System: CHINESE HAMSTER V-79-MZ, Metabolic Activation: NONE",active; positive
same,mutagenic call,"Test System: CHINESE HAMSTER V-79-MZ, Strain/Indicator: V-79 MZ (HPRT)/6-THIOGUANINE, Metabolic Activation: NONE",inactive; negative
NCCc1cnc[nH]1,mutagenic call,"Test System: AMES SALMONELLA TYPHIMURIUM, Strain/Indicator: TA97, Metabolic Activation: NONE, Method: STANDARD PLATE",inactive; negative
same,mutagenic call,"Test System: AMES SALMONELLA TYPHIMURIUM, Strain/Indicator: TA97, Metabolic Activation: RAT, LIVER, S-9, AROCLOR 1254, Method: STANDARD PLATE",inactive; negative
same,mutagenic call,[1],inactive; negative
same,mutagenic call,[6],inactive; negative
same,mutagenic call,[2],inactive; negative
same,mutagenic call,[7],inactive; negative
same,mutagenic call,"Test System: AMES SALMONELLA TYPHIMURIUM, Strain/Indicator: TA102, Metabolic Activation: NONE, Method: STANDARD PLATE",inactive; negative
same,mutagenic call,"Test System: AMES SALMONELLA TYPHIMURIUM, Strain/Indicator: TA102, Metabolic Activation: RAT, LIVER, S-9, AROCLOR 1254, Method: STANDARD PLATE",inactive; negative
same,mutagenic call,"Test System: UDS RAT HEPATOCYTES, Strain/Indicator: THY INCORP, Metabolic Activation: NONE, Method: AUTORADIOGRAPHY",inactive; negative
CC(C)C[C@@H]1NC(=O)[C@H](C)N(C)C(=O)CNC(=O)/C(=C/c2ccccc2)N(C)C1=O,mutagenic call,[1],inactive; negative
same,mutagenic call,"Test System: AMES SALMONELLA TYPHIMURIUM, Strain/Indicator: TA98, Metabolic Activation: RAT LIVER S-9, AROCLOR 1254, Method: STANDARD PLATE",inactive; negative
same,mutagenic call,[2],inactive; negative
same,mutagenic call,"Test System: AMES SALMONELLA TYPHIMURIUM, Strain/Indicator: TA100, Metabolic Activation: RAT LIVER S-9, AROCLOR 1254, Method: STANDARD PLATE",inactive; negative
same,mutagenic call,"Test System: Ames Salmonella typhimurium, Strain/Indicator: TA97, Metabolic Activation: None, Method: Standard plate",inactive; negative. nitrosation did not increase mutagenicity
same,mutagenic call,"Test System: Ames Salmonella typhimurium, Strain/Indicator: TA97, Metabolic Activation: Rat, Liver, S-9, Aroclor 1254 (10%), Method: Standard plate",inactive; negative. nitrosation did not increase mutagenicity
same,mutagenic call,"Test System: Ames Salmonella typhimurium, Strain/Indicator: TA102, Metabolic Activation: None, Method: Standard plate",inactive; negative. nitrosation did not increase mutagenicity
same,mutagenic call,"Test System: Ames Salmonella typhimurium, Strain/Indicator: TA102, Metabolic Activation: Rat, Liver, S-9, Aroclor 1254 (10%), Method: Standard plate",inactive; negative. nitrosation did not increase mutagenicity
same,mutagenic call,"Test System: Ames Salmonella typhimurium, Strain/Indicator: TA104, Metabolic Activation: None, Method: Standard plate",inactive; negative. nitrosation did not increase mutagenicity
same,mutagenic call,"Test System: Ames Salmonella typhimurium, Strain/Indicator: TA104, Metabolic Activation: Rat, Liver, S-9, Aroclor 1254 (10%), Method: Standard plate",inactive; negative. nitrosation did not increase mutagenicity
NCC1CCC(C(=O)c2ccc(CCC(=O)O)cc2)CC1 (stereo not drawn),mutagenic call,[1],inactive; negative
same,mutagenic call,[6],inactive; negative
same,mutagenic call,[2],inactive; negative
same,mutagenic call,[7],inactive; negative
same,mutagenic call,[3],inactive; negative
same,mutagenic call,"Test System: AMES SALMONELLA TYPHIMURIUM, Strain/Indicator: TA1535, Metabolic Activation: RAT, LIVER, S-9, AROCLOR 1254, Method: STANDARD PLATE",inactive; negative
same,mutagenic call,[4],inactive; negative
same,mutagenic call,"Test System: AMES SALMONELLA TYPHIMURIUM, Strain/Indicator: TA1537, Metabolic Activation: RAT, LIVER, S-9, AROCLOR 1254, Method: STANDARD PLATE",inactive; negative
same,mutagenic call,[5],inactive; negative
same,mutagenic call,"Test System: AMES SALMONELLA TYPHIMURIUM, Strain/Indicator: TA1538, Metabolic Activation: RAT, LIVER, S-9, AROCLOR 1254, Method: STANDARD PLATE",inactive; negative
same,mutagenic call,"Test System: E. COLI, Strain/Indicator: WP2 UVRA, Metabolic Activation: NONE, Method: STANDARD PLATE",inactive; negative
same,mutagenic call,"Test System: E. COLI, Strain/Indicator: WP2 UVRA, Metabolic Activation: RAT, LIVER, S-9, AROCLOR 1254, Method: STANDARD PLATE",inactive; negative
